Legend:
[1] = biological target: D(2) dopamine receptor (Bos taurus) (UniProt P20288); assay: High percent binding affinity for different states of the Dopamine receptor D2 in bovine anterior pituitary membranes, using radioligand [3H]spiroperidol
[2] = biological target: D(2) dopamine receptor (Bos taurus) (UniProt P20288); assay: Low percent binding affinity for different states of the Dopamine D-2 receptor in bovine anterior pituitary membranes, using radioligand [3H]spiroperidol; type: cell membranes
D(2) dopamine receptor [3] = biological target: T1, D(2) dopamine receptor (Bos taurus, UniProt P20288); assay: High binding affinity for dopamine D-2 receptor from bovine anterior pituitary membrane, using radioligand [3H]spiroperidol
T1 sequence (P20288 whole entry): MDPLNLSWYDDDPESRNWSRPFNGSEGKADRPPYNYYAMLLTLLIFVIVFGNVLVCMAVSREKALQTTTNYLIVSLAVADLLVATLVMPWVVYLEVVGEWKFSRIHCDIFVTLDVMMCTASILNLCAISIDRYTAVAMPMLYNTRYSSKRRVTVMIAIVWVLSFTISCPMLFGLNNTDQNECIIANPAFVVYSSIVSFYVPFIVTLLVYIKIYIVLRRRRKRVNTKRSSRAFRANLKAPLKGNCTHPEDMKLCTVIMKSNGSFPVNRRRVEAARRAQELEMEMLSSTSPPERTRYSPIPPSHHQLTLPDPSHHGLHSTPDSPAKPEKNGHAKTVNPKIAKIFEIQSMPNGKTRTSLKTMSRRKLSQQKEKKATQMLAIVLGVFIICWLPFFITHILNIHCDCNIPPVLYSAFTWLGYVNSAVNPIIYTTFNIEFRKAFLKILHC

D(2) dopamine receptor [4] = biological target: T1, D(2) dopamine receptor; assay: Low binding affinity for dopamine D-2 receptor from bovine anterior pituitary membrane, using radioligand [3H]spiroperidol
D(2) dopamine receptor [5] = biological target: T1, D(2) dopamine receptor; assay: High binding affinity for dopamine D-2 receptor from bovine anterior pituitary membrane, using radioligand [3H]spiroperidol in bovine anterior pituitary membranes; type: cell membranes
D(2) dopamine receptor [6] = biological target: T1, D(2) dopamine receptor; assay: Low binding affinity for dopamine D-2 receptor from bovine anterior pituitary membrane, using radioligand [3H]spiroperidol in bovine anterior pituitary membranes; type: cell membranes
D(2) dopamine receptor [7] = biological target: T1, D(2) dopamine receptor; assay: Low binding affinity for dopamine receptor D2 from bovine anterior pituitary membrane, using radioligand [3H]spiroperidol in bovine anterior pituitary membranes; type: cell membranes
[8] = biological target: D(2) dopamine receptor (Bos taurus) (UniProt P20288); assay: Low percent binding affinity for different states of the dopamine receptor D2 in bovine anterior pituitary membranes, using radioligand [3H]spiroperidol; type: cell membranes

Sequence of D(2) dopamine receptor (Bos taurus) (P20288 whole entry): as above

## CCCN1C[C@H](CSC)C[C@@H]2c3cc(O)c(O)cc3CC[C@H]21
[1]
  Percent of receptors in high-affinity state: 33%
[2]
  Low: 67%

## NCCc1ccc(O)c(O)c1
[1]
  High: 31%
[2]
  Low: 69%

## CCCN1C[C@H](CC#N)C[C@@H]2c3cc(O)c(O)cc3CC[C@H]21
D(2) dopamine receptor [3]
  Ki: 6 nM
[1]
  Percent of receptors in high-affinity state: 44%
D(2) dopamine receptor [4]
  Ki: 360 nM
[2]
  Low: 56%

## CCCN1C[C@H](CC#N)C[C@@H]2c3cc(O)ccc3CC[C@H]21
D(2) dopamine receptor [5]
  Ki: 4 nM
[1]
  Percent of receptors in high-affinity state: 30%
[2]
  Low: 70%
D(2) dopamine receptor [6]
  Ki: 280 nM

## CCCN1C[C@H](C)C[C@@H]2c3cc(O)ccc3CC[C@H]21
D(2) dopamine receptor [3]
  Ki: 8 nM
[1]
  Percent of receptors in high-affinity state: 13%
D(2) dopamine receptor [4]
  Ki: 1940 nM
[2]
  Low: 87%

## CCCN1C[C@H](CC#N)C[C@@H]2c3cccc(O)c3CC[C@H]21
[2]
  Low: 100%
D(2) dopamine receptor [6]
  Ki: 5390 nM

## CCCN1C[C@H](C)C[C@@H]2c3cccc(O)c3CC[C@H]21
[2]
  Low: 100%

## CCCN1C[C@H](CSC)C[C@@H]2c3ccc(O)c(O)c3CC[C@H]21
D(2) dopamine receptor [4]
  Ki: 1730 nM
[2]
  Low: 100%

## CCCN1C[C@H](CSC)C[C@@H]2c3cc(O)ccc3CC[C@H]21
D(2) dopamine receptor [5]
  Ki: 14 nM
[1]
  Percent of receptors in high-affinity state: 21%
[2]
  Low: 79%
D(2) dopamine receptor [6]
  Ki: 1210 nM

## CCCN1C[C@H](CC#N)C[C@@H]2c3ccc(O)c(O)c3CC[C@H]21
D(2) dopamine receptor [4]
  Ki: 1460 nM
[2]
  Low: 100%

## CCCN1C[C@H](CSC)C[C@@H]2c3cccc(O)c3CC[C@H]21
D(2) dopamine receptor [7]
  Ki: 250 nM
[8]
  Low: 100%
